# Measured values taken from patent publication US20260167620A1, “MULTIFUNCTIONAL COMPOUND CAPABLE OF DEGRADING BTK KINASE, AND COMPOSITION AND USE” (HANGZHOU HEALZEN THERAPEUTICS CO., LTD., priority 2021, published 2026).
# How the values were obtained:
# [1] = Liver microsomal metabolic stability, human; type: in vitro ADME; conditions: human liver microsomes, NADPH, 37° C.
# Procedure: (§1) Under the condition of ice bath, 1 mg of human or Mouse liver microparticles was add to PBS (1 mL) buffer, then NADPH (20 μL) was added, and incubated at 37° C. for 5 min. 10 μL of the compound to be tested was added, then suck several times with a pipette and divide into 3 aliquots of 330 μL; each and then samples were taken at 0, 15, 30, 60 and 120 min respectively. 10 μL of the solution was taken with a pipette each time and added to 490 μL of the solution containing the internal standard compound. The resulting solution was vortexed and then placed on ice, and then sampling at another time point continues. All samples were centrifuged at 10,000 rpm for 10 min, and the supernatant was taken for LC/MS testing. The metabolism of the compound in liver microsomes was calculated based on the peak area.
# Mino cells = assay: Inhibitory activity on Mino cell proliferation (MTS); type: cell-based; conditions: Homo sapiens, 72 h or 168 h
# Procedure: (§2) The anti-tumor efficacy of the compounds was tested by measuring their inhibitory effects on OCI-LY10 and Mino cell proliferation. OCI-LY10 and Mino cells were cultured in RPM-1640 medium containing […] fetal calf serum. OCI-LY10 and Mino cells were digested, inoculated in a 96-well plate at a cell concentration of 10000 cells/well, and incubated overnight at 37° C., 5% CO2. Compounds of different concentrations (1000 nM, 4-fold dilution, 8 points) were added to the 96-well plate and incubated for 72 h or 168 h at 37° C. and […], and then 20 μL of MTS was added to each well. After incubation for 2 h, 25 μl of 10% SDS was added to each well to terminate the reaction. The absorbance at 490 nm and 650 nm were measured with a microplate reader. IC50 was calculated using GraphPad Prism 5.0.
# BTK = molecular target: T1, BTK (Homo sapiens, UniProt Q06187); assay: BTK degradation activity test in Mino cells (Westernblot or Elisa); type: cell-based; conditions: 24-72 h incubation
# T1 construct: endogenous in cells; host or cells: Mino cells
# T1 sequence (Q06187 whole entry): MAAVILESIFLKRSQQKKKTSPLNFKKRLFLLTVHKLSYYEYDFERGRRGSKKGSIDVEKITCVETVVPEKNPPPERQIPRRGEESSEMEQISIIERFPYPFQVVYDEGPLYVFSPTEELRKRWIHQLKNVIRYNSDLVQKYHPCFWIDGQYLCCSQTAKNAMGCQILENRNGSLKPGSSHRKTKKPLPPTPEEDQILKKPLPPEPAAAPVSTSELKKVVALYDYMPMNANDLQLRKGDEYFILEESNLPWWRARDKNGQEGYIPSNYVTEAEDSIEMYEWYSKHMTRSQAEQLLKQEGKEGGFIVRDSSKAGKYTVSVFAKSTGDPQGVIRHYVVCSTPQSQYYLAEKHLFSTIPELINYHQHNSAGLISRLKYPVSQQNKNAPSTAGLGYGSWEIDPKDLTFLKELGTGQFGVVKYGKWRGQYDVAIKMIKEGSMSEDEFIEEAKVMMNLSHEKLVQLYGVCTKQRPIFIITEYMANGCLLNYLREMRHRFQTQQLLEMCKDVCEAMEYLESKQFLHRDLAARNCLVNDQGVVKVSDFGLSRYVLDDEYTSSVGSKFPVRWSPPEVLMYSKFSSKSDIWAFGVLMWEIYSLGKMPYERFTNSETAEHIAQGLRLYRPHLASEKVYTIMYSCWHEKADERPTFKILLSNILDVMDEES
# Procedure: The Mino cell line cells are 0.5˜1 million/well in 6-well plates. The compounds are diluted to different concentrations, added to the plate, and after 24-72 h of incubation, the cells are collected. After the cells were lysed, the total protein concentration in each well was determined with a BCA kit. The amount of BTK is determined using the Westernblot or Elisa method.
# OCI-LY10 cells = assay: Inhibitory activity on OCI-LY10 cell proliferation (MTS); type: cell-based; conditions: Homo sapiens, 72 h or 168 h
# Procedure: as §2
# [2] = Liver microsomal metabolic stability, mouse; type: in vitro ADME; conditions: mouse liver microsomes, NADPH, 37° C.
# Procedure: as §1
# Rat absorption test = type: in vivo; conditions: SD rats, intragastric 10 mg/kg, plasma
# Procedure: SD Rats were used as experimental animals, and drugs were administered intragastrically at 10 mg/kg (5% DMSO+5% Solutol+90% normal saline). The blood collection time points for intragastric administration were 0.25, 0.5, 1, 2, 4, 6, 8, and 24 h. 0.3 ml of whole blood was taken, and 0.1 ml of plasma was taken after centrifugation and analyzed by LC-MS.
Compound,Thalf (min) Human [1] [min],IC50 (Mino cells) [nM],DC50 (BTK) [nM],IC50 (OCI-LY10 cells) [nM],Thalf (min) Mouse [2] [min],DNAUC (Rat absorption test)
"CC(=O)N[C@@H]1CCCN(c2nnc(C(N)=O)c(Nc3ccc(N4CCN(CC5CCN(c6ccc(C(=O)NC7CCC(=O)NC7=O)nc6)CC5)CC4)c(F)c3)n2)C1 (stereo partly drawn) [Compound 092, 3-((R)-3-acetamidopiperidin-1-yl)-5-((4-(4-((1-(6-((2,6-dioxopiperidin-3-yl)carbamoyl)pyridin-3-yl)piperidin-4-yl)methyl)piperazin-1-yl)-3-fluorophenyl)amino)-1,2,4-triazine-6-carboxamide]",41,3.28,< 10,0.24,90,
"NC(=O)c1nnc(N2CCOCC2)nc1Nc1ccc(C2CCN(CC3CCN(c4ccc5c(c4)C(=O)N(C4CCC(=O)NC4=O)C5=O)C3)CC2)cc1 (stereo not shown) [Compound 019, 5-((4-(1-((1-(2-(2,6-dioxopiperidin-3-yl)-1,3-dioxoisoindolin-5-yl)pyrrolidin-3-yl)methyl)piperidin-4-yl)phenyl)amino)-3-morpholino-1,2,4-triazine-6-carboxamide]",,2.13,< 10,1.1,,
"COc1cc(N2CCC(CN3CCN(c4ccc(Nc5nc(N6CCCCC6)nnc5C(N)=O)cc4F)CC3)CC2)ccc1N1CCC(=O)NC1=O [Compound 082, 5-((4-(4-((1-(4-(2,4-dioxotetrahydropyrimidin-1(2H)-yl)-3-methoxyphenyl)piperidin-4-yl)methyl)piperazin-1-yl)-3-fluorophenyl)amino)-3-(piperidin-1-yl)-1,2,4-triazine-6-carboxamide]",,2.3,< 10,0.64,,
"CC(=O)N[C@@H]1CCCN(c2nnc(C(N)=O)c(Nc3ccc(C4CCN(CC5CCN(c6ccc7c(c6)C(=O)N(C6CCC(=O)NC6=O)C7=O)CC5)CC4)cc3)n2)C1 (stereo partly drawn) [Compound 023, 3-((R)-3-acetamidopiperidin-1-yl)-5-((4-(1-((1-(2-(2,6-dioxopiperidin-3-yl)-1,3-dioxoisoindolin-5-yl)piperidin-4-yl)methyl)piperidin-4-yl)phenyl)amino)-1,2,4-triazine-6-carboxamide]",20,6.75,< 10,0.69,59,
"Cc1cc(N2CCC(CN3CCN(c4ccc(Nc5nc(N6CCCCC6)nnc5C(N)=O)cc4F)CC3)CC2)ccc1N1CCC(=O)NC1=O [Compound 075, 5-((4-(4-((1-(4-(2,4-dioxotetrahydropyrimidin-1(2H)-yl)-3-methylphenyl)piperidin-4-yl)methyl)piperazin-1-yl)-3-fluorophenyl)amino)-3-(piperidin-1-yl)-1,2,4-triazine-6-carboxamide]",,1.42,< 10,0.51,,1125 AUC (h*ng/mL)/dose (mg/kg)
"NC(=O)c1nnc(N2CCCCC2)nc1Nc1ccc(C2CCN(CC3CCN(c4ccc(NC5CCC(=O)NC5=O)cn4)C3)CC2)cc1 (stereo not shown) [Compound 014, 5-((4-(1-((1-(5-((2,6-dioxopiperidin-3-yl)amino)pyridin-2-yl)pyrrolidin-3-yl)methyl)piperidin-4-yl)phenyl)amino)-3-(piperidin-1-yl)-1,2,4-triazine-6-carboxamide]",,4.14,< 10,0.67,,
"NC(=O)c1nnc(N2CCCCC2)nc1Nc1ccc(N2CCN(CC3CCN(c4ccc(C(=O)NC5CCC(=O)NC5=O)nc4)CC3)CC2)c(F)c1 (stereo not shown) [Compound 085, 5-((4-(4-((1-(6-((2,6-dioxopiperidin-3-yl)carbamoyl)pyridin-3-yl)piperidin-4-yl)methyl)piperazin-1-yl)-3-fluorophenyl)amino)-3-(piperidin-1-yl)-1,2,4-triazine-6-carboxamide]",,,< 10,0.57,,579 AUC (h*ng/mL)/dose (mg/kg)
"CC(=O)N[C@@H]1CCCN(c2nnc(C(N)=O)c(Nc3ccc(N4CCN(CC5CCN(c6ccc(N7CCC(=O)NC7=O)c(C)c6)CC5)CC4)c(F)c3)n2)C1 [Compound 090, (R)-3-(3-acetamidopiperidin-1-yl)-5-((4-(4-((1-(4-(2,4-dioxotetrahydropyrimidin-1(2H)-yl)-3-methylphenyl)piperidin-4-yl)methyl)piperazin-1-yl)-3-fluorophenyl)amino)-1,2,4-triazine-6-carboxamide]",78,1.94,< 10,0.89,63,
"NC(=O)c1nnc(N2CCCCC2)nc1Nc1ccc(N2CCN(CC3CCN(c4ccc(NC5CCC(=O)NC5=O)nc4)CC3)CC2)c(F)c1 (stereo not shown) [Compound 077, 5-((4-(4-((1-(6-((2,6-dioxopiperidin-3-yl)amino)pyridin-3-yl)piperidin-4-yl)methyl)piperazin-1-yl)-3-fluorophenyl)amino)-3-(piperidin-1-yl)-1,2,4-triazine-6-carboxamide]",57,,< 10,1.59,79,285 AUC (h*ng/mL)/dose (mg/kg)
"NC(=O)c1nnc(N2CCCCC2)nc1Nc1ccc(C2CCN(CC3CCN(c4ccc5c(c4)C(=O)N(C4CCC(=O)NC4=O)C5=O)C3)CC2)nn1 (stereo not shown) [Compound 004, 5-((6-(1-((1-(2-(2,6-dioxopiperidin-3-yl)-1,3-dioxoisoindolin-5-yl)pyrrolidin-3-yl)methyl)piperidin-4-yl)pyridazin-3-yl)amino)-3-(piperidin-1-yl)-1,2,4-triazine-6-carboxamide]",,1.15,< 10,0.18,,
"NC(=O)c1nnc(N2CCCCC2)nc1Nc1ccc(N2CCN(CC3CCN(c4ncc(-c5ccc(=O)[nH]n5)cc4C(F)(F)F)CC3)CC2)c(F)c1 [Compound 081, 5-((3-fluoro-4-(4-((1-(5-(6-oxo-1,6-dihydropyridazin-3-yl)-3-(trifluoromethyl)pyridin-2-yl)piperidin-4-yl)methyl)piperazin-1-yl)phenyl)amino)-3-(piperidin-1-yl)-1,2,4-triazine-6-carboxamide]",,,< 10,,,372 AUC (h*ng/mL)/dose (mg/kg)
"NC(=O)c1nnc(N2CCCCC2)nc1Nc1cnc(C2CCN(CC3CCN(c4ccc5c(c4)C(=O)N(C4CCC(=O)NC4=O)C5=O)C3)CC2)nc1 (stereo not shown) [Compound 005, 5-((2-(1-((1-(2-(2,6-dioxopiperidin-3-yl)-1,3-dioxoisoindolin-5-yl)pyrrolidin-3-yl)methyl)piperidin-4-yl)pyrimidin-5-yl)amino)-3-(piperidin-1-yl)-1,2,4-triazine-6-carboxamide]",,2.47,< 10,0.41,,
"NC(=O)c1nnc(N2CCCCC2)nc1Nc1ccc(N2CCN(CC3CCN(c4ccc(C(=O)NC5CCC(=O)NC5=O)nc4)C3)CC2)c(F)c1 (stereo not shown) [Compound 079, 5-((4-(4-((1-(6-((2,6-dioxopiperidin-3-yl)carbamoyl)pyridin-3-yl)pyrrolidin-3-yl)methyl)piperazin-1-yl)-3-fluorophenyl)amino)-3-(piperidin-1-yl)-1,2,4-triazine-6-carboxamide]",,,< 10,1.15,,6611 AUC (h*ng/mL)/dose (mg/kg)
"NC(=O)c1nnc(N2CCOCC2)nc1Nc1ccc(N2CCN(CC3CCN(c4ccc(C(=O)NC5CCC(=O)NC5=O)nc4)CC3)CC2)c(F)c1 (stereo not shown) [Compound 100, 5-((4-(4-((1-(6-((2,6-dioxopiperidin-3-yl)carbamoyl)pyridin-3-yl)piperidin-4-yl)methyl)piperazin-1-yl)-3-fluorophenyl)amino)-3-morpholino-1,2,4-triazine-6-carboxamide]",,3.83,< 10,0.39,,
"CC(=O)N[C@@H]1CCCN(c2nnc(C(N)=O)c(Nc3ccc(C4CCN(CC5CCN(c6ccc7c(c6)C(=O)N(C6CCC(=O)NC6=O)C7=O)C5)CC4)cc3)n2)C1 (stereo partly drawn) [Compound 016, 3-((R)-3-acetamidopiperidin-1-yl)-5-((4-(1-((1-(2-(2,6-dioxopiperidin-3-yl)-1,3-dioxoisoindolin-5-yl)pyrrolidin-3-yl)methyl)piperidin-4-yl)phenyl)amino)-1,2,4-triazine-6-carboxamide]",37,1.45,< 10,0.32,49,
